Experimental findings from patent publication US12606541B2, “PPARg modulators and methods of use” (Eisai R&D Management Co., Ltd., priority 2020, dated 2026) are described below.

SMILES strings stand for the structures. Like-named read-outs stand apart in the source and are kept apart here. Where only a bound is given, the exact number is not on record here.

The target in one test is T1, His6-TEV-PPARγ-(234-505) (Homo sapiens, UniProt P37231).
T1 construct: The His6-TEV-PPARγ-(234-505) protein for assay was expressed and purified; TEV cleavage site (N); made in house
T1 sequence (P37231 234-505): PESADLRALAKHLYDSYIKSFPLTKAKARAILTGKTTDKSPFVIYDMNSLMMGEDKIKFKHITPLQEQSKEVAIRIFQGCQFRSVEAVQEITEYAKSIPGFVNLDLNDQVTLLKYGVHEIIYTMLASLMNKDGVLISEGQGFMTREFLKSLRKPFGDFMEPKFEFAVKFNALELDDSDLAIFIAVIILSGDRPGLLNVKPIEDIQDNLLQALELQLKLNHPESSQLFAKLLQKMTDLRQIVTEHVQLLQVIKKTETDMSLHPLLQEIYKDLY
The experiment in a line: TR-FRET Assay to Measure Co-R Peptide Recruitment to PPARγ. It counts as biochemical. The conditions noted are these: Co-R peptide (SMRT-ID2) recruitment, top final concentration 20 μM, read-out: TR-FRET i-Ag, AC50. The procedure, abridged: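 His-tagged PPARγ (or controls) was preincubated with compound for 20 minutes at room temperature, then 5 nM anti-His terbium antibody and 200 nM FITC-labeled SMRT-ID2 corepressor peptide (final) were added for a further hour. TR-FRET signal was normalized to percent response using 500 nM T0070907 and DMSO controls.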
On the technique in general: In TR-FRET formats the signal depends on donor and acceptor labels being close together.

In another test the test system is UM-UC-9 engineered cells. Description: Cell proliferation / short-term viability assay, CellTiter-Glo 144 h. Format: cell-based, human. The conditions noted are these: read-out: CTGlo 144 h UMUC9.5, G150. The procedure, abridged:
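UM-UC-9 engineered assay-ready cells seeded at 500 cells/well in high-glucose DMEM/10% FBS, treated from dose-response plates, grown at 37° C, 5% CO2. CellTiter-Glo 2.0 luminescence read on day 7, with a day-0 pretreatment plate as T0 reference and DMSO wells as negative control.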
(In general: ATP-based viability assays read luminescence as a measure of living cells.)

With `COc1cc(-c2cc(C(=O)N3CCC(C(=O)NCc4ccc(C)o4)CC3)n[nH]2)c(Cl)cn1` [Example 189, 1-(5-(5-chloro-2-methoxypyridin-4-yl)-1H-pyrazole-3-carbonyl)-N-((5-methylfuran-2-yl)methyl)piperidine-4-carboxamide], at His6-TEV-PPARγ-(234-505), the AC50 was 0.119 µM. Moreover, the IC50 in the test with UM-UC-9 engineered cells (Homo sapiens, UM-UC-9, 144 h) came out at 0.521 µM.
Consider `COc1cc(-c2cc(C(=O)N3CCC(C(=O)NC4CCN(CC5(O)COC5)C4)CC34CC4)n[nH]2)c(F)cn1` (mixture of isomers) [Example 454, (S)-4-(5-(5-fluoro-2-methoxypyridin-4-yl)-1H-pyrazole-3-carbonyl)-N—((R)-1-((3-hydroxyoxetan-3-yl)methyl)pyrrolidin-3-yl)-4-azaspiro[2.5]octane-7-carboxamide and (S)-4-(5-(5-fluoro-2-methoxypyridin-4-yl)-1H-pyrazole-3-carbonyl)-N—((S)-1-((3-hydroxyoxetan-3-yl)methyl)pyrrolidin-3-yl)-4-azaspiro[2.5]octane-7-carboxamide], for which the AC50 on His6-TEV-PPARγ-(234-505) worked out at 0.196 µM. The IC50 with UM-UC-9 engineered cells was found to be 0.999 µM.
In the case of `CO[C@]1(C(F)(F)F)CC[C@@H](NC(=O)[C@@H]2CCN(C(=O)c3cc(-c4cc(C)ncn4)[nH]n3)C3(CC3)C2)CC1` (single isomer, unassigned) [Example 309-C], the AC50 on His6-TEV-PPARγ-(234-505) came out at 0.72 µM. Also, the IC50 in the test on UM-UC-9 engineered cells (Homo sapiens, UM-UC-9, 144 h) came out at 6.2 µM.
In the same order, the values of `COc1cc(-c2cc(C(=O)N3CCC(C(=O)NCc4ccc5ncoc5c4)CC3)n[nH]2)c(Cl)cn1` [Example 152] are 0.853 µM and 0.825 µM.
As for `COc1cc(-c2[nH]nc(C(=O)N3CCC(C(=O)NC4CCC(C)CC4)CC3)c2Cl)ccn1` (single isomer, unassigned) [Example 110-A], the AC50 on His6-TEV-PPARγ-(234-505) (listed as 110a) was 2.16 µM. The IC50 with UM-UC-9 engineered cells (listed as 110a) is 3.19 µM.
Consider `CCc1cc(-c2cc(C(=O)N3CCC(C(=O)NCc4cccc(Cl)c4)CC3)n[nH]2)c(Cl)cn1` [Example 270, 1-[5-(5-chloro-2-ethylpyridin-4-yl)-1H-pyrazole-3-carbonyl]-N-[(3-chlorophenyl)methyl]piperidine-4-carboxamide], for which the AC50 on His6-TEV-PPARγ-(234-505) stood at 0.0234 µM. Further, in the test on UM-UC-9 engineered cells (Homo sapiens, UM-UC-9, 144 h), the IC50 amounted to 0.306 µM.
The corresponding values for `COc1cc(-c2cc(C(=O)N3CCC(C(=O)N[C@@H](C)c4cccc(F)c4)CC3)n[nH]2)c(Cl)cn1` [Example 103, (8)-1-(5-(5-chloro-2-methoxypyridin-4-yl)-1H-pyrazole-3-carbonyl)-N-(1-(3-fluorophenyl)ethyl)piperidine-4-carboxamide] are 0.257 µM and 0.32 µM.
The corresponding values for `COc1cc(-c2cc(C(=O)N3CCC(C(=O)NCc4ccc(F)cn4)CC3)n[nH]2)c(Cl)cn1` [Example 127, 1-(5-(5-chloro-2-methoxypyridin-4-yl)-1H-pyrazole-3-carbonyl)-N-((5-fluoropyridin-2-yl)methyl)piperidine-4-carboxamide] are 0.644 µM and 2.93 µM.
In the same order, the values of `COc1cc(-c2cc(C(=O)N3CCC(C(=O)NCc4ccc5cc[nH]c5c4)CC3)n[nH]2)c(Cl)cn1` [Example 188, N-((1H-indol-6-yl)methyl)-1-(5-(5-chloro-2-methoxypyridin-4-yl)-1H-pyrazole-3-carbonyl)piperidine-4-carboxamide] are 0.0798 µM and 0.211 µM.
Regarding `COc1cc(-c2cc(C(=O)N3CC[C@H](C(=O)NCC4CCS(=N)(=O)C4(C)C)CC34CC4)n[nH]2)c(F)cn1` (mixture of isomers) [Example 372-A], the AC50 at His6-TEV-PPARγ-(234-505) worked out at 0.696 µM. Also, the IC50 in the test with UM-UC-9 engineered cells (Homo sapiens, UM-UC-9, 144 h) is above 10 µM.
The corresponding values for `COc1cc(-c2cc(C(=O)N3CCC(C(=O)NCc4c[nH]c5ncccc45)CC3)n[nH]2)c(Cl)cn1` [Example 202, N-((1H-pyrrolo[2,3-b]pyridin-3-yl)methyl)-1-(5-(5-chloro-2-methoxypyridin-4-yl)-1H-pyrazole-3-carbonyl)piperidine-4-carboxamide] are 0.136 µM and 1.59 µM.
